In patent publication US20190337889A1, “COMPOSITIONS AND METHODS OF REGULATING CANCER RELATED DISORDERS AND DISEASES” (ONCO THERAPIES LLC, priority 2016, published 2019):

Tests used:
[1] = test system: MCF7/LCC9 cell line; experiment: XTT cell death assay, MCF7/LCC9 cells; format: cell-based; details: Homo sapiens, # = 200 uM not tested, read-out: LCC-9: concentration with effect on cancer cells
Method: (§1) Maintenance and Treatment of Cell Lines. Human HepG2 hepatocarcinoma cells and human U87MG glioma cells (ATCC, Manassas, Va.) were maintained in EMEM medium supplemented with 10% FBS (Hyclone, Logan, Utah). The human 1321N1 astrocytoma cells (European Collection of Cell Cultures, Sigma-Aldrich) were cultured in Dulbecco's modified Eagle's medium supplemented with 10% FBS and 2 mM L-glutamine. Human prostate carcinoma cell line PC3 was cultured in F-12K medium (Life Technologies) supplemented 10% FBS. Human lung carcinoma cell line A549 was cultured in DMEM+2 mM glutamine+10% FBS. ER positive, estrogen independent for growth MCF7/LCC9 cell line was cultured in IMEM (Biofluids) supplemented with 5% charcoal stripped calf serum. Medulloblastoma cell line DAOY was cultured in Eagle's MEM supplemented with 10% FBS. All cell lines except MDA-MB-321 were cultured at 37° C. in 5% CO2, and the medium was replaced every 2-3 days. MDA-MB-231 was grown in Leibovitz's L-15 medium with 10% FBS without CO2 supplementation.
(§2) Cell death assay. The extent of cell death and toxicity of the compounds was tested by XTT assay. The cells were plated in their respective media in 96-well plates. The compounds and were added in dilutions ranging from 0.01 nM to 200 μM and for control DMSO to 1% was used. […] For XTT assay first the medium in the wells was replaced with 200 μs of fresh phenol-red free medium. Then 50 μls of XTT solution with PMS was added to the wells. The XTT solution was made adding 0.02% phenazine methosulfate (Sigma-Aldrich #P9625) to 1 mg/ml XTT sodium salt made up in phenol-red free RPMI (Sigma-Aldrich #X4636). The plate was incubated for 4 hours at 37° C. and then the absorbance was read at a wavelength of 490 nm.

[2] = test system: DAOY; experiment: XTT cell death assay, DAOY medulloblastoma cells; format: cell-based; details: Homo sapiens, # = 200 uM not tested, read-out: DAOY: concentration with effect on cancer cells
Method: as §1, §2

[3] = test system: A549; experiment: XTT cell death assay, A549 lung carcinoma cells; format: cell-based; details: Homo sapiens, # = 200 uM not tested, read-out: A549: concentration with effect on cancer cells
Method: as §1, §2

[4] = test system: MDA-MB-231; experiment: XTT cell death assay, MDA-MB-231 cells; format: cell-based; details: Homo sapiens, # = 200 uM not tested, read-out: MDA-MB-231: concentration with effect on cancer cells
Method: as §1, §2

[5] = test system: HepG2 cells; experiment: XTT cell death assay, HepG2 hepatocarcinoma cells; format: cell-based, human; details: dilutions 0.01 nM to 200 μM, usually 24 or 48 hours; for minimal effective concentration: Homo sapiens, HepG2, *Greater than 50% inhibition, read-out: HepG2* (liver cancer): concentration with greater than 50% inhibition
Method: as §1, with “FBS.” for “FBS. All cell lines except MDA-MB-321 were cultured at 37° C. in 5% CO2, and the medium was replaced every 2-3 days. MDA-MB-231 was grown in Leibovitz's L-15 medium with 10% FBS without CO2 supplementation.”
as §2, with “#X4636).” for “#X4636). The plate was incubated for 4 hours at 37° C. and then the absorbance was read at a wavelength of 490 nm.”

[6] = test system: PC3 cells; experiment: XTT cell death assay, PC3 prostate carcinoma cells; format: cell-based; details: Homo sapiens, PC-3, # = 200 uM not tested, read-out: PC3: concentration with effect on cancer cells
Method: as §1, §2

[7] = test system: 1321N1 cells; experiment: XTT cell death assay, 1321N1 astrocytoma cells; format: cell-based; details: Homo sapiens, *Greater than 50% inhibition, dilutions 0.01 nM to 200 μM, usually 24 or 48 hours, read-out: 1321N* (brain cancer): concentration with greater than 50% inhibition
Method: as §1, with “FBS.” for “FBS. All cell lines except MDA-MB-321 were cultured at 37° C. in 5% CO2, and the medium was replaced every 2-3 days. MDA-MB-231 was grown in Leibovitz's L-15 medium with 10% FBS without CO2 supplementation.”
as §2, with “#X4636).” for “#X4636). The plate was incubated for 4 hours at 37° C. and then the absorbance was read at a wavelength of 490 nm.”

SMILES	minimal effective concentration [1] [µM]	minimal effective concentration [2] [µM]	minimal effective concentration [3] [µM]	minimal effective concentration [4] [µM]	minimal effective concentration [5] [µM]	minimal effective concentration [6] [µM]	minimal effective concentration [7] [µM]	HepG2* (liver cancer): concentration with greater than 50% inhibition [5]
Cc1ccc(CC(C)NCC(O)c2ccccc2)c2ccccc12 (centres unmarked) [NT038, 2-((1-(4-methylnaphthalen-1-yl)propan-2-yl)amino)-1-phenylethan-1-ol]	100	100	100	100	–	–	–	–
CC(Cc1ccc2ccccc2c1)NCCc1ccc(O)cc1 (centres unmarked) [NT021, 4-(2-((1-(naphthalen-2-yl)propan-2-yl)amino)ethyl)phenol]	100	100	100	100	200	200	–	–
Cc1ccc(CC(C)NCCc2ccc(O)cc2)c2ccccc12 (centres unmarked) [NT034]	100	–	–	100	200	–	–	–
CC(Cc1ccc2ccccc2c1)NCC(O)c1cccc(O)c1 (centres unmarked) [NT023, 3-(1-hydroxy-2-((1-(naphthalen-2-yl)propan-2-yl)amino)ethyl)phenol]	100	100	100	100	100	100	–	–
Cc1ccc(CC(C)NCC(O)c2cccc(O)c2)c2ccccc12 (centres unmarked) [NT037, 3-(1-hydroxy-2-((1-(4-methylnaphthalen-1-yl)propan-2-yl)amino)ethyl)phenol]	100	100	100	100	–	–	–	–
CC(Cc1ccc2ccccc2c1)NCC(O)c1ccccc1O (centres unmarked) [NT030, 2-(1-hydroxy-2-((1-(naphthalen-2-yl)propan-2-yl)amino)ethyl)phenol]	100	100	100	100	100	100	–	–
O=C(O)c1cc(O)c(O)c(O)c1 [NT003]	–	–	–	–	200	–	200	–
CC(Cc1ccc2ccccc2c1)NCC(O)c1ccccc1 (centres unmarked) [NT020, 2-((1-(naphthalen-2-yl)propan-2-yl)amino)-1-phenylethan-1-ol]	100	100	100	100	100	100	–	–
CC(N)c1ccc2ccccc2c1 (centres unmarked) [NT010]	–	–	–	–	200	–	200	–
COc1ccc2cc(C(C)N)ccc2c1 (centres unmarked) [NT011]	–	–	–	–	200	–	200	–
CC(Cc1cccc2ccccc12)Nc1ccc(O)cc1 (centres unmarked) [NT017, 4-((1-(naphthalen-1-yl)propan-2-yl)amino)phenol]	–	100	100	–	–	100	100	No effect
CC(Cc1ccc2ccccc2c1)Nc1ccc(O)cc1 (centres unmarked) [NT018, 4-((1-(naphthalen-2-yl)propan-2-yl)amino)phenol]	–	100	100	–	200	100	100	–
CC(N)c1cccc2ccccc12 (centres unmarked) [NT009]	–	–	–	–	100	–	100	–
